# Laboratory results published in PubChem BioAssay AID330 (DTP/NCI, 2004).
# Values joined by “and” are separate entries in the source; they are usually repeats but may differ in a detail not shown here. Equal values may be shown once. Toxic doses and inconclusive results are not listed.
# Test system: P388 leukemia ip, CD2F1 mice, survival T/C
# Assay: NCI In Vivo Anticancer Drug Screen. Data for tumor model P388 Leukemia (intraperitoneal) in CD2F1 (CDF1) mice
# Details: endpoint: median survival time, higher = longer survival
# Outline: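 Mice carrying the transplanted tumor received test compound or vehicle. Survival was recorded in each group, and the value is the treated-group measurement divided by that of the vehicle-treated control group.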
# [1] = dose: 12.5 mg/kg/injection, schedule: Q01DX005 (ip), vehicle: distilled water + Tween-80
# [2] = dose: 25.0 mg/kg/injection, schedule: Q01DX005 (ip), vehicle: distilled water + Tween-80
# [3] = dose: 50.0 mg/kg/injection, schedule: Q01DX005 (ip), vehicle: distilled water + Tween-80
# [4] = dose: 100.0 mg/kg/injection, schedule: Q01DX005 (ip), vehicle: distilled water + Tween-80
# [5] = dose: 200.0 mg/kg/injection, schedule: Q04DX003 (ip), vehicle: Klucel (hydroxypropylcellulose) (HPC)
# [6] = dose: 50.0 mg/kg/injection, schedule: Q01DX005 (ip), vehicle: saline with Tween-80
# [7] = dose: 100.0 mg/kg/injection, schedule: Q01DX005 (ip), vehicle: saline with Tween-80
# [8] = dose: 60.0 mg/kg/injection, schedule: Q01DX005 (ip), vehicle: saline with Tween-80
# [9] = dose: 120.0 mg/kg/injection, schedule: Q01DX005 (ip), vehicle: saline with Tween-80
# [10] = dose: 240.0 mg/kg/injection, schedule: Q01DX005 (ip), vehicle: saline with Tween-80
# [11] = dose: 50.0 mg/kg/injection, schedule: Q01DX005 (ip), vehicle: Klucel (hydroxypropylcellulose) (HPC)
# [12] = dose: 100.0 mg/kg/injection, schedule: Q01DX005 (ip), vehicle: Klucel (hydroxypropylcellulose) (HPC)
# [13] = dose: 50.0 mg/kg/injection, schedule: Q01DX009 (ip), vehicle: saline with Tween-80
# [14] = dose: 100.0 mg/kg/injection, schedule: Q01DX009 (ip), vehicle: saline with Tween-80
# [15] = dose: 200.0 mg/kg/injection, schedule: Q01DX009 (ip), vehicle: saline with Tween-80
# [16] = dose: 25.0 mg/kg/injection, schedule: Q01DX009 (ip), vehicle: saline with Tween-80
# [17] = dose: 25.0 mg/kg/injection, schedule: Q04DX002 (ip), vehicle: saline with Tween-80
# [18] = dose: 100.0 mg/kg/injection, schedule: Q04DX002 (ip), vehicle: saline with Tween-80
smiles,measurement,setting,value
Cc1ccc(S(=O)(=O)N/N=C/c2cc([N+](=O)[O-])ccc2O)cc1,T/C,[1],93 % of control
same,T/C,[2],100 % of control
same,T/C,[3],112 % of control
same,T/C,[4],105 % of control
CC(Cl)CN(Cc1cc(O)c(CN(CC(C)Cl)CC(C)Cl)cc1O)CC(C)Cl (stereo not drawn),T/C,[5],118 % of control
CN(C)CCCNC(=O)NCCCCCCNC(=O)NCCCN(C)C,T/C,[6],93 % of control
same,T/C,[7],86 % of control
COc1ccc2c(c1OC)C1N(C)CCc3cc4c(cc3C1(OC)C2=O)OCO4 (stereo not drawn),T/C,[8],93 % of control
same,T/C,[9],88 % of control
same,T/C,[10],93 % of control
COc1ccc(S(=O)(=O)c2cc(C)c3ccc4ccccc4c3n2)cc1,T/C,[11],101 % of control
same,T/C,[12],102 % of control
same,T/C,"dose: 200.0 mg/kg/injection, schedule: Q01DX005 (ip), vehicle: Klucel (hydroxypropylcellulose) (HPC)",98 % of control
COc1ncc[n+]([O-])n1,T/C,[13],103 % of control
same,T/C,[14],100 % of control and 108 % of control and 111 % of control
same,T/C,[15],100 % of control and 102 % of control and 123 % of control
same,T/C,"dose: 400.0 mg/kg/injection, schedule: Q01DX009 (ip), vehicle: saline with Tween-80",93 % of control
[Ag].[Ag].[NH-]S(=O)(=O)c1ccc(N=Nc2cc(N=Nc3ccc(S([NH-])(=O)=O)cc3)c3c(NC(=O)C(Cl)Cl)cccc3c2OC(=O)C(Cl)Cl)cc1.[c-]1nccs1.[c-]1nccs1,T/C,"dose: 12.5 mg/kg/injection, schedule: Q01DX009 (ip), vehicle: saline with Tween-80",91 % of control
same,T/C,[16],100 % of control
same,T/C,[13],88 % of control and 93 % of control
COC(=O)c1ccc(/C=C(\c2ccc([N+](=O)[O-])o2)S(=O)(=O)c2ccc(NC(C)=O)cc2)o1,T/C,"dose: 50.0 mg/kg/injection, schedule: Q01DX009 (ip), vehicle: suspension in saline",95 % of control
same,T/C,"dose: 100.0 mg/kg/injection, schedule: Q01DX009 (ip), vehicle: suspension in saline",88 % of control
[Cl][Pt+2][Cl].[NH-]CC([NH-])c1ccccc1 (stereo not drawn),T/C,"dose: 6.25 mg/kg/injection, schedule: Q04DX002 (ip), vehicle: saline with Tween-80",179 % of control
same,T/C,"dose: 12.5 mg/kg/injection, schedule: Q01DX001 (ip), vehicle: Klucel (hydroxypropylcellulose) (HPC)",152 % of control
same,T/C,"dose: 12.5 mg/kg/injection, schedule: Q04DX002 (ip), vehicle: saline with Tween-80",194 % of control
same,T/C,"dose: 25.0 mg/kg/injection, schedule: Q01DX001 (ip), vehicle: Klucel (hydroxypropylcellulose) (HPC)",179 % of control
same,T/C,[17],220 % of control
same,T/C,"dose: 50.0 mg/kg/injection, schedule: Q01DX001 (ip), vehicle: Klucel (hydroxypropylcellulose) (HPC)",157 % of control and 163 % of control
Nc1nnc2nc(C3(c4nc5nnc(N)n5[nH]c4=O)CCCC3=O)c(=O)[nH]n12,T/C,"dose: 50.0 mg/kg/injection, schedule: Q01DX005 (ip), vehicle: saline",106 % of control
same,T/C,"dose: 100.0 mg/kg/injection, schedule: Q01DX005 (ip), vehicle: saline",94 % of control
same,T/C,"dose: 200.0 mg/kg/injection, schedule: Q01DX005 (ip), vehicle: saline",106 % of control
CCO/C([O-])=C(/C(=N/S(=O)(=O)c1ccc(C)cc1)SC)[n+]1ccccc1,T/C,[17],100 % of control
same,T/C,"dose: 50.0 mg/kg/injection, schedule: Q04DX002 (ip), vehicle: saline with Tween-80",99 % of control
same,T/C,[18],99 % of control
CCOC(=O)C(=Cc1ccccc1Cl)C(=O)OCC,T/C,[16],100 % of control and 111 % of control
same,T/C,[13],110 % of control
same,T/C,[14],102 % of control and 120 % of control
same,T/C,[15],116 % of control
O=C(C[P+](c1ccccc1)(c1ccccc1)c1ccccc1)c1ccccc1,T/C,[8],105 % of control
same,T/C,[9],108 % of control
same,T/C,[10],96 % of control
O=C(O)c1cc2ccccc2c(Br)c1O.O=[N+]([O-])C1CCC(O)C2[N-]CCCC21.[Cu+],T/C,"dose: 6.25 mg/kg/injection, schedule: Q01DX005 (ip), vehicle: saline with Tween-80",97 % of control
same,T/C,"dose: 12.5 mg/kg/injection, schedule: Q01DX005 (ip), vehicle: saline with Tween-80",100 % of control and 106 % of control
same,T/C,"dose: 25.0 mg/kg/injection, schedule: Q01DX005 (ip), vehicle: saline with Tween-80",106 % of control and 98 % of control
O=S(=O)(Nc1ccccn1)c1ccc(N=Cc2c3ccccc3nc3cc(Cl)ccc23)cc1,T/C,[6],91 % of control
same,T/C,[7],88 % of control
NCC(CC(=O)O)c1ccc(Cl)cc1 (stereo not drawn),T/C,[11],94 % of control
same,T/C,[12],93 % of control
CCCCN(CCCC)P(=O)(N1CC1)N1CC1,T/C,"dose: 6.25 mg/kg/injection, schedule: Q01DX009 (ip), vehicle: saline",118 % of control
same,T/C,"dose: 16.5 mg/kg/injection, schedule: Q01DX009 (ip), vehicle: saline",175 % of control
same,T/C,"dose: 100.0 mg/kg/injection, schedule: Q04DX003 (ip), vehicle: saline",90 % of control
COC1OC(CO)C(O)C(O)C1NC(C)=O (stereo not drawn),T/C,[6],99 % of control
same,T/C,[7],100 % of control
same,T/C,"dose: 200.0 mg/kg/injection, schedule: Q01DX005 (ip), vehicle: saline with Tween-80",104 % of control
O=c1c2ccccc2nc(/C=N/NC(=S)Nc2ccc(Cl)cc2)n1-c1ccc(Br)cc1,T/C,[18],96 % of control
same,T/C,"dose: 200.0 mg/kg/injection, schedule: Q04DX002 (ip), vehicle: saline with Tween-80",88 % of control
O=C(CC[N+](=O)[O-])OCC1OC(O)C(OC(=O)CC[N+](=O)[O-])C(O)C1O (stereo not drawn),T/C,[1],100 % of control
same,T/C,"dose: 18.75 mg/kg/injection, schedule: Q01DX001 (ip), vehicle: saline + alcohol",100 % of control
same,T/C,[2],97 % of control
same,T/C,"dose: 37.5 mg/kg/injection, schedule: Q01DX001 (ip), vehicle: saline + alcohol",101 % of control
same,T/C,[3],100 % of control
same,T/C,"dose: 75.0 mg/kg/injection, schedule: Q01DX001 (ip), vehicle: saline + alcohol",109 % of control
same,T/C,[4],98 % of control
same,T/C,"dose: 200.0 mg/kg/injection, schedule: Q01DX005 (ip), vehicle: distilled water + Tween-80",100 % of control
COc1cc2cc(-c3ccc(OC(C)C)c(OC)c3)[n+](C)cc2cc1OC,T/C,"dose: 100.0 mg/kg/injection, schedule: Q01DX001 (ip), vehicle: saline with Tween-80",100 % of control
same,T/C,"dose: 200.0 mg/kg/injection, schedule: Q01DX001 (ip), vehicle: saline with Tween-80",94 % of control
CN(C(=O)C(Cl)Cl)c1ccc(-c2csc(-c3ccccc3)n2)cc1,T/C,"dose: 100.0 mg/kg/injection, schedule: Q04DX003 (ip), vehicle: Klucel (hydroxypropylcellulose) (HPC)",100 % of control
same,T/C,[5],97 % of control
same,T/C,"dose: 400.0 mg/kg/injection, schedule: Q04DX003 (ip), vehicle: Klucel (hydroxypropylcellulose) (HPC)",91 % of control
O=C1CC(=O)N2C=CC=CC2=N1,T/C,"dose: 50.0 mg/kg/injection, schedule: Q01DX009 (ip), vehicle: saline",101 % of control
same,T/C,"dose: 200.0 mg/kg/injection, schedule: Q01DX009 (ip), vehicle: saline",91 % of control
Cc1cc(=O)[nH]c(NNC(=O)c2ccc(Cl)cc2)n1,T/C,"dose: 25.0 mg/kg/injection, schedule: Q01DX009 (ip), vehicle: distilled water + Tween-80",93 % of control
same,T/C,"dose: 50.0 mg/kg/injection, schedule: Q01DX009 (ip), vehicle: distilled water + Tween-80",86 % of control
same,T/C,"dose: 100.0 mg/kg/injection, schedule: Q01DX009 (ip), vehicle: distilled water + Tween-80",93 % of control
same,T/C,"dose: 200.0 mg/kg/injection, schedule: Q01DX009 (ip), vehicle: distilled water + Tween-80",89 % of control
same,T/C,"dose: 400.0 mg/kg/injection, schedule: Q01DX009 (ip), vehicle: distilled water + Tween-80",101 % of control
CCC(=N\N=C(N)N)/C(CC)=N/N=C(N)N,T/C,[8],101 % of control
same,T/C,[9],97 % of control
